Literature values, collected in patent US9340307B2, “Stable laquinimod preparations” (priority 2007, dated 2016).

System: acute experimental autoimmune encephalomyelitis (aEAE) model
Conditions: U.S. Pat. No. 6,077,851

CCN(C(=O)c1c(O)c2c(Cl)cccc2n(C)c1=O)c1ccccc1 [Laquinimod, N-ethyl-N-phenyl-1,2-dihydro-4-hydroxy-5-chloro-1-methyl-2-oxoquinoline-3-carboxamide]
effectiveness in the aEAE model: effective
